Experimental findings from US12589090B2, “Compounds and methods for the treatment of degenerative disorders” (Aquilus Pharmaceuticals, Inc., priority 2019, dated 2026) are described below.

A short description of data set [1]: In-vivo oral PK of Compound 118 in SOD-1 mice (Example 19). The arrangement: species or system SOD-1-G93A (SOD-1) mice. As to conditions: for AUC / Cmax: SOD-1-G93A, mouse, po, PO 200 mg/Kg for 3 days. Here is the method:
The present example orally doses compound 118 once per day (SID) or twice per day (BID) for three days to a series of mice that have overexpression for the protein copper-zinc superoxide dismutase 1. Compound 118 was orally dosed in SOD-1-G93A (SOD-1) mice in a PK study. In summary, SOD-1 mice (At P100±4 days of age) received twice daily (BID) or once daily (SID) oral administration of 200 mg/Kg Compound 118 (as an aqueous suspension in 0.5% methylcellulose) for 3 days (Table 6). Plasma was collected from the tail vein at baseline (pre-dose), 15 min, 30 min, 1 h, 2 h, 4 h post-last PO dose on the third day. One animal from each group was euthanized 2 hrs. post dose on the third day of dosing where plasma, spinal cord, and brain tissue was collected post-mortem. The remaining 3 animals per group was euthanized six hours after the final dose on the third day, plasma, spinal cord, and brain tissue was then collected post-mortem. […] There was a significant difference in clearance of Compound 118 within plasma between male and female SOD-1 mice. […] Given the sex difference in clearance, it will be necessary to increase the amount that male SOD-1 mice are dosed compared to females SOD-1 mice in order maintain parity in exposure between the sexes.

A short description of data set [2]: Dissociation constant. It is filed as physicochemical.
In data set [3] the test system is TDP-43 overexpression in Drosophila motor neurons. Description: TDP-43 Drosophila model of ALS, larval turning read-out (Example 23). In kind it is in vivo. As to conditions: 1 microMolar, TDP-43 (wild-type and G298S) overexpression, vs. DMSO vehicle. Here is the method:
Procedure: UAS TDP-43 male Drosophila flies were crossed with D42-Gal4 female virgins on fly food containing either DMSO or 1% Compound 118 in dimethyl sulfoxide (DMSO). For DMSO controls, the same volume of DMSO as the corresponding Compound 118 concentration was added. Bromophenol blue was added to a final concentration of around 0.02% to ensure homogeneity. Crosses were made on drug food with three female virgins and two males in each vial and were maintained at 25° C. unless noted. The parents were discarded after 5-7 days and then the vials were screened for adult progeny with straight wings from Day 14 to Day 25. All adults were screened for TDP-43 expression by visualizing the YFP tag. Total number of pupae was counted on Day 25. Percent survival was calculated using the formula (total number of straight-winged adults/total number of pupae)×100. All experiments were performed in triplicate. Read-outs include larval turning assay and pupil lethality screen.
TDP^WT=Wild-type TDP-43, TDP^G298S=Diseases associated G298S mutant expressed in motor neurons. […], ***p<0.001 as compared to DMSO as vehicle.

The mark [4] stands for this setting: female, plasma, 200 mg/kg, Female SOD-1 mice, BID.
The mark [5] stands for this setting: female, plasma, 200 mg/kg, Female SOD-1 mice, SID.
Setting [6] is: male, plasma, 200 mg/kg, Male SOD-1 mice, BID.
Where [7] appears, read: male, plasma, 200 mg/kg, Male SOD-1 mice, SID.

For `[2H]C([2H])([2H])c1ccc(C#Cc2ccc(S(=O)(=O)N[C@H](Cc3c[nH]c4ccccc34)C(=O)O)s2)cc1` [Compound 118, (R)-3-(1H-Indol-3-yl)-2-[5-(4-trideuteromethyl-phenylethynyl)-thiophene-2-sulfonylamino]-propionic acid-(D3, 98%)], in data set [1] (200 mg/Kg PO, plasma), the “AUC in Female SOD-1 mice relative to male SOD-1 mice” value is 3-4 times. Further, in data set [1] (SOD-1 mice, 200 mg/Kg PO, T=2 hour from last dose on third day), the “concentration in the spinal cord” value was 200-400 ng of AQU-118/gram spinal tissue. In addition, the “oral bioavailability in plasma” value in data set [1] (SOD-1 mice, 200 mg/Kg PO, 200 mg/kg) is on record as “good oral bioavailability”; in data set [1] (SOD-1 mice, 200 mg/Kg PO, listed as AQU-118, 200 mg/kg), “good bioavailability in plasma”. Further, the AUC in data set [1] (setting [4]) is 394 µg·h/mL; in data set [1] (setting [5]), 342 µg·h/mL; in data set [1] (setting [6]) it was 115 µg·h/mL; in data set [1] (setting [7]) it was 121 µg·h/mL. Moreover, the Cmax in data set [1] (setting [4]) amounted to 111 µg/mL; in data set [1] (setting [5]) it was 96 µg/mL; in data set [1] (setting [6]) it was 39.1 µg/mL; in data set [1] (setting [7]) it was 44.5 µg/mL. Further, the dissociation constant entry in data set [2] is “around 3.4”. For the same compound, the “locomotive defects via larval turning times” value in data set [3] was “able to mitigate locomotive defects”.
